From US9695154B2, “Heteroaryl inhibitors of sumo activating enzyme” (MILLENNIUM PHARMACEUTICALS, INC., priority 2013, dated 2017) come the findings set out here.

In general, IC50 refers to the midpoint of a concentration-inhibition curve. The inhibition is the change of the read-out against control, counted positive when it falls.

The assay addresses T1, recombinant human SAE enzyme (Homo sapiens, UniProt Q9UBT2).
T1 sequence (Q9UBT2 1-640): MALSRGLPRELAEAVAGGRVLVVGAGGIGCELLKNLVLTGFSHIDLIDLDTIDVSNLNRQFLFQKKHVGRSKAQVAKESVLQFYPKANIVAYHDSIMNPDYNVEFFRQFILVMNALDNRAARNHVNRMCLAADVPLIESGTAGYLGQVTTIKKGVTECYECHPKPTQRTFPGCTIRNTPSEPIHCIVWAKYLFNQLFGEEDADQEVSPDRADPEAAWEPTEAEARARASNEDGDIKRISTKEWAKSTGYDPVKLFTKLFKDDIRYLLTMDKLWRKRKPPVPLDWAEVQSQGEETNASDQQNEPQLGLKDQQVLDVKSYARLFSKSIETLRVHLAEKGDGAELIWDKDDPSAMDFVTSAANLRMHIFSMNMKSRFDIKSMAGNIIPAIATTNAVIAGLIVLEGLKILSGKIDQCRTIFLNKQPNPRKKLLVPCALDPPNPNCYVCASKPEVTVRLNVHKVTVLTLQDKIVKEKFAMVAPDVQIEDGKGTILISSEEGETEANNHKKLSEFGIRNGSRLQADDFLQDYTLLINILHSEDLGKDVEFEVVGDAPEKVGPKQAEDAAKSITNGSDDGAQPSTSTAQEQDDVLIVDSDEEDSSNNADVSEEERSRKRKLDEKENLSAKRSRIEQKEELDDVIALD
T1 sequence (Q9UBE0 1-346 partner): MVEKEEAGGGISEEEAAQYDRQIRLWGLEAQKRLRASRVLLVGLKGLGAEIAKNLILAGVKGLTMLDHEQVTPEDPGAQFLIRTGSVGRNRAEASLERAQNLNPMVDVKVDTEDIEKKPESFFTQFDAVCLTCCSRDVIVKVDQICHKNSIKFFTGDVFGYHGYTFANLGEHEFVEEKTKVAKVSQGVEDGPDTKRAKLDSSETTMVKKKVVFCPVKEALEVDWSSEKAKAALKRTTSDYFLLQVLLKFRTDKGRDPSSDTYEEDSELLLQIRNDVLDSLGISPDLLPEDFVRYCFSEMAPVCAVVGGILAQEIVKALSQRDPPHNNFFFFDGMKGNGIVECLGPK
Briefly: SAE HTRF Enzyme Assay. It is filed as biochemical. The following applies: for IC50: class symbols A-C; for inhibition at 0.111 µM: read-out: Percent Inhibition. In short, it runs like this:
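Reaction with 0.11 nM recombinant human SAE, 0.5 μM ATP, 0.01 μM Ubc9-GST, 0.125 μM Sumo-Flag in HEPES pH 7.5, MgCl2, GSH, BSA, 105 min at 24 °C. Stopped with EDTA/KF buffer carrying Eu-anti-Flag and anti-GST-APC; HTRF read after 2 h; % inhibition or IC50.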
Background: Time-resolved FRET reads energy transfer from a long-lived donor to a nearby acceptor.

[1] abbreviates: compound concentration 0.111 μM.

Some results are limits rather than exact numbers.

In the case of `CC(c1cccc(Br)c1)n1ccc(C(=O)c2cncnc2N[C@@H]2C[C@H](COS(N)(=O)=O)[C@@H](O)[C@@H]2F)c1` (single isomer, unassigned) [Compound I-363, [(1R,2R,3R,4R)-4-{[5-({1-[(1S)-1-(3-bromophenyl)ethyl]-1H-pyrrol-3-yl}carbonyl)pyrimidin-4-yl]amino}-3-fluoro-2-hydroxycyolopentyl]methyl sulfamate or [(1R,2R,3R,4R)-4-{[5-({1-[(1R)-1-(3-bromophenyl)ethyl]-1H-pyrrol-3-yl}carbonyl)pyrimidin-4-yl]amino}-3-fluoro-2-hydroxycyclopentyl]methyl sulfamate], the IC50 is less than 10 nM. Moreover, the “Percent Inhibition” value (compound concentration 0.111 μM, 0.111 µM) was 100%.
With `NS(=O)(=O)OC[C@H]1C[C@@H](Nc2ncncc2C(=O)c2ccn(Cc3ccc(F)c(Cl)c3)n2)[C@@H](F)[C@@H]1O` [Compound I-122, {(1R,2R,3R,4R)-4-[(5-{[1-(3-chloro-4-fluorobenzyl)-1H-pyrazol-3-yl]carbonyl}pyrimidin-4-yl)amino]-3-fluoro-2-hydroxycyclopentyl}methyl sulfamate], the IC50 is less than 10 nM. Also, under setting [1], the inhibition at 0.111 µM came to 99%.
Turning to `NS(=O)(=O)OC[C@H]1C[C@@H](Nc2ncncc2C(=O)c2ccn(Cc3ccc(C(F)(F)F)cc3C(F)(F)F)n2)C[C@@H]1O` [Compound I-69, [(1R,2S,4R)-4-{[5-({1-[2,4-bis(trifluoromethyl)benzyl]-1H-pyrazol-3-yl}carbonyl)pyrimidin-4-yl]amino}-2-hydroxycyclopentyl]methyl sulfamate], the IC50 fell in the range of 100 to 1000 nM. The inhibition at 0.111 µM under setting [1] is 39%.
Taken in the same sequence, the figures for `CSCn1ccc(C(=O)c2cncnc2N[C@@H]2C[C@H](COS(N)(=O)=O)[C@@H](O)C2)n1` [Compound I-281, [(1R,2S,4R)-2-hydroxy-4-{[5-({1-[(methylsulfanyl)methyl]-1H-pyrazol-3-yl}carbonyl)pyrimidin-4-yl]amino}cyclopentyl]methyl sulfamate] were 100 to 1000 nM and 25%.
The like results for `Cc1cccc(Cn2ccc(C(=O)c3cncnc3N[C@@H]3C[C@H](COS(N)(=O)=O)[C@@H](O)C3)n2)c1F` [Compound I-22, {(1R,2S,4R)-4-[(5-{[1-(2-fluoro-3-methylbenzyl)-1H-pyrazol-3-yl]carbonyl}pyrimidin-4-yl)amino]-2-hydroxycyclopentyl}methyl sulfamate] were, in that order, less than 10 nM and 100%.
The like results for `Cc1cc(C(=O)c2cncnc2N[C@@H]2C[C@H](COS(N)(=O)=O)[C@@H](O)[C@@H]2F)nn1Cc1ccc(C(F)(F)F)o1` [Compound I-197, [(1R,2R,3R,4R)-3-Fluoro-2-hydroxy-4-({5-[(5-methyl-1-{[5-(trifluoromethyl)-2-furyl]methyl}-1H-pyrazol-3-yl)carbonyl]pyrimidin-4-yl}amino)cyclopentyl]methyl sulfamate] were, in that order, less than 10 nM and 99%.
For the compound `NS(=O)(=O)OC[C@H]1C[C@@H](Nc2ncncc2C(=O)c2ccn(Cc3ccc(Cl)c(Br)c3)n2)[C@H](O)[C@@H]1O` [Compound I-204, {(1R,2R,3S,4R)-4-[(5-{[1-(3-bromo-4-chlorobenzyl)-1H-pyrazol-3-yl]carbonyl}pyrimidin-4-yl)amino]-2,3-dihydroxycyclopentyl}methyl sulfamate], the IC50 is less than 10 nM. In addition, the inhibition at 0.111 µM under setting [1] was found to be 99%.
The like results for `NS(=O)(=O)OC[C@H]1C[C@@H](Nc2ncncc2C(=O)c2ccn(Cc3cccc(I)c3)n2)[C@H](O)[C@@H]1O` [Compound I-221, {(1R,2R,3S,4R)-2,3-dihydroxy-4-[(5-{[1-(3-iodobenzyl)-1H-pyrazol-3-yl]carbonyl}pyrimidin-4-yl)amino]cyclopentyl}methyl sulfamate] were, in that order, less than 10 nM and 100%.
Taken in the same sequence, the figures for `NS(=O)(=O)OC[C@H]1C[C@@H](Nc2ccncc2C(=O)c2ccn(Cc3cccc(OC(F)(F)F)c3)c2)[C@@H](F)[C@@H]1O` [Compound I-132, [(1R,2R,3R,4R)-3-Fluoro-2-hydroxy-4-{[3-({1-[3-(trifluoromethoxy)benzyl]-1H-pyrrol-3-yl}carbonyl)pyridin-4-yl]amino}cyclopentyl]methyl sulfamate] were 10 to 100 nM and 78%.
As for `CC(c1ccccc1)n1ccc(C(=O)c2cncnc2N[C@@H]2C[C@H](COS(N)(=O)=O)[C@@H](O)[C@H]2O)n1` (single isomer, unassigned) [Compound I-351, {(1R,2R,3S,4R)-2,3-dihydroxy-4-[(5 -{[1-((1S)-1-phenylethyl)-1H-pyrazol-3-yl]carbonyl}pyrimidin-4-yl)amino]cyclopentyl}methyl sulfamate or {(1R,2R,3S,4R)-2,3-dihydroxy-4-[(5-{[1-((1R)-1-phenylethyl)-1H-pyrazol-3-yl]carbonyl}pyrimidin-4-yl)amino]cyclopentyl}methyl sulfamate], the IC50 was less than 10 nM. Besides, the inhibition at 0.111 µM under setting [1] is 97%.
The like results for `NS(=O)(=O)OC[C@H]1C[C@@H](Nc2ncncc2C(=O)c2ccn(Cc3ccc(F)c(F)c3)n2)[C@@H](O)[C@@H]1O` [Compound I-190, {(1R,2R,3R,4R)-4-[(5-{[1-(3,4-difluorobenzyl)-1H-pyrazol-3-yl]carbonyl}pyrimidin-4-yl)amino]-2,3-dihydroxycyclopentyl}methyl sulfamate] were, in that order, less than 10 nM and 98%.
With `NS(=O)(=O)OC[C@H]1C[C@@H](Nc2ncncc2C(=O)c2ccn(Cc3cc(C(F)(F)F)ccc3Cl)n2)[C@@H](F)[C@@H]1O` [Compound I-181, [(1R,2R,3R,4R)-4-{[5-({1-[2-chloro-5-(trifluoromethyl)benzyl]-1H-pyrazol-3-yl}carbonyl)pyrimidin-4-yl]amino}-3-fluoro-2-hydroxycyclopentyl]methyl sulfamate], the IC50 is less than 10 nM. Moreover, the inhibition at 0.111 µM under setting [1] is 94%.
The like results for `NS(=O)(=O)OC[C@H]1C[C@@H](Nc2ncncc2C(=O)c2ccn(Cc3ccccc3)n2)[C@@H](F)[C@@H]1O` [Compound I-317, [(1R,2R,3R,4R)-4-({5-[(1-Benzyl-1H-pyrazol-3-yl)carbonyl]pyrimidin-4-yl}amino)-3-fluoro-2-hydroxycyclopentyl]methyl sulfamate] were, in that order, less than 10 nM and 96%.
Consider `N#Cc1ccccc1Cn1ccc(C(=O)c2cncnc2N[C@@H]2C[C@H](COS(N)(=O)=O)[C@@H](O)C2)n1` [Compound I-253, {(1R,2S,4R)-4-[(5-{[1-(2-cyanobenzyl)-1H-pyrazol-3-yl]carbonyl)pyrimidin-4-yl)amino]-2-hydroxycyclopentyl}methyl sulfamate], for which the IC50 lay in the range of 10 to 100 nM. Also, the inhibition at 0.111 µM under setting [1] was found to be 91%.
`NS(=O)(=O)OC[C@H]1C[C@@H](Nc2ccncc2C(=O)c2ccn(Cc3ccc(F)c(C(F)(F)F)c3)n2)C[C@@H]1O` [Compound I-263, [(1R,2S,4R)-4-{[3-({1-[4-fluoro-3-(trifluoromethyl)benzyl]-1H-pyrazol-3-yl}carbonyl)pyridin-4-yl]amino}-2-hydroxycyclopentyl]methyl sulfamate]: the IC50 was less than 10 nM. Further, under setting [1], the inhibition at 0.111 µM came to 91%.
For `NS(=O)(=O)OC[C@H]1C[C@@H](Nc2ncncc2C(=O)c2ccn(Cc3cc(I)ccc3Cl)n2)C[C@@H]1O` [Compound I-104, {(1R,2S,4R)-4-[(5-{[1-(2-chloro-5-iodobenzyl)-1H-pyrazol-3-yl]carbonyl}pyrimidin-4-yl)amino]-2-hydroxycyclopentyl}methyl sulfamate], the IC50 was less than 10 nM. The inhibition at 0.111 µM under setting [1] worked out at 100%.
Taken in the same sequence, the figures for `NS(=O)(=O)OC[C@H]1C[C@@H](Nc2ncncc2C(=O)c2ccn(Cc3cccc(OC(F)(F)F)c3)n2)[C@H](O)[C@@H]1O` [Compound I-349, [(1R,2R,3S,4R)-2,3-dihydroxy-4-{[5-({1-[3-(trifluoromethoxy)benzyl]-1H-pyrazol-3-yl}carbonyl)pyrimidin-4-yl]amino}cyclopentyl]methyl sulfamate] were less than 10 nM and 100%.
As for `NS(=O)(=O)OC[C@H]1C[C@@H](Nc2ncncc2C(=O)c2ccn(Cc3cc(F)cc(Cl)c3)n2)[C@H](O)[C@@H]1O` [Compound I-334, {(1R,2R,3S,4R)-4-[(5-{[1-(3-chloro-5-fluorobenzyl)-1H-pyrazol-3-yl]carbonyl}pyrimidin-4-yl)amino]-2,3-dihydroxycyclopentyl}methyl sulfamate], the IC50 was less than 10 nM. Moreover, the inhibition at 0.111 µM under setting [1] is 98%.
